{"source": "patent US20060173632A1", "about": "“Method for predicting effectiveness of chemotherapy” (SYSMEX CORPORATION, priority 2005, published 2006)", "assay_type_in_all_cases": "in vivo", "parameters_in_all_cases": "key: Type I mouse is a mouse confirmed to highly sensitive to the anticancer agent. By administering paclitaxel into this type of mouse, the tumor almost disappeared; Type II mouse is a mouse whose sensitivity to the anticancer agent was confirmed to be moderate. By administering paclitaxel into this type of mouse, the increase in tumor size is suppressed; Type III mouse is a mouse confirmed to be poor in sensitivity to the anticancer agent. Even if paclitaxel is administered into this type of mouse, the tumor size continues increasing", "key": {"[1]": {"test_system": "human-derived breast cancer cultured cells (cell A)", "experiment": "Paclitaxel effect on tumor size in mice grafted with breast cancer cells A", "settings": "Cell A graft; paclitaxel 20 mg/kg/day once a day for 5 day; change in tumor size to day 11; one line per mouse", "method": "(§1) Five kinds of human-derived breast cancer cultured cells (cells A to E) were transplanted subcutaneously into the back of mice, and the mice were maintained for 21 to 28 days to graft the breast tumor cells thereon. 50 mice (Nos. 1 to 50 (Table 2)) on which the breast tumor cells had been grafted were thus created. From the back of each of these mice, a 2.5 mm×2.5 mm tissue section (about 50 mg) was cut off, and a lysis buffer (containing 0.1 w/v % Nonidet P-40 (NP-40) (manufactured by Calbiochem), 50 mM Tris-HCl (pH 7.4), 5 mM EDTA, 50 mM sodium fluoride, 1 mM sodium orthovanadate and 100 μl/ml protease cocktail (Sigma)) was added to this tissue section. The tissue section in the lysis buffer was homogenized with an electric homogenizer.\n(§2) 20 mg/kg (mouse weight)/day of paclitaxel was administered once a day into each of mice Nos. 1 to 50 for 5 day. The tumor size from the initiation of administration to day 11 was measured. Depending on change in tumor size, mice Nos. 1 to 50 were classified into types I, II and III. Type I mouse is a mouse confirmed to highly sensitive to the anticancer agent. By administering paclitaxel into this type of mouse, the tumor almost disappeared. Type II mouse is a mouse whose sensitivity to the anticancer agent was confirmed to be moderate. By administering paclitaxel into this type of mouse, the increase in tumor size is suppressed. […]"}, "[2]": {"test_system": "human-derived breast cancer cultured cells (cell B)", "experiment": "Paclitaxel effect on tumor size in mice grafted with breast cancer cells B", "settings": "Cell B graft; paclitaxel 20 mg/kg/day once a day for 5 day; change in tumor size to day 11; one line per mouse", "method": "as §1, §2"}, "[3]": {"test_system": "human-derived breast cancer cultured cells (cell C)", "experiment": "Paclitaxel effect on tumor size in mice grafted with breast cancer cells C", "settings": "Cell C graft; paclitaxel 20 mg/kg/day once a day for 5 day; change in tumor size to day 11; one line per mouse", "method": "as §1, §2"}, "[4]": {"test_system": "human-derived breast cancer cultured cells (cell E)", "experiment": "Paclitaxel effect on tumor size in mice grafted with breast cancer cells E", "settings": "Cell E graft; paclitaxel 20 mg/kg/day once a day for 5 day; change in tumor size to day 11; one line per mouse", "method": "as §1, §2"}, "[5]": {"test_system": "human-derived breast cancer cultured cells (cell D)", "experiment": "Paclitaxel effect on tumor size in mice grafted with breast cancer cells D", "settings": "Cell D graft; paclitaxel 20 mg/kg/day once a day for 5 day; change in tumor size to day 11; one line per mouse", "method": "as §1, §2"}}, "data": [{"smiles": "CC(=O)O[C@H]1C(=O)[C@@]2(C)[C@H]([C@H](OC(=O)c3ccccc3)[C@]3(O)C[C@H](OC(=O)[C@H](O)[C@@H](NC(=O)c4ccccc4)c4ccccc4)C(C)=C1C3(C)C)[C@]1(OC(C)=O)CO[C@@H]1C[C@@H]2O", "note": "[paclitaxel]", "values": [{"measurement": "result of (4)", "setting": "[1]", "result": "Type I"}, {"measurement": "result of (4)", "setting": "[2]", "result": "Type II"}, {"measurement": "result of (4)", "setting": "[3]", "result": "Type II"}, {"measurement": "result of (4)", "setting": "[4]", "result": "Type III"}, {"measurement": "result of (4)", "setting": "[5]", "result": "Type III"}]}]}
